Source: patent publication US20230028680A1, “EXPANSION OF NATURAL KILLER CELLS AND ILC3 CELLS WITH NOVEL AROMATIC COMPOUNDS” (Celularity Inc., priority 2018, published 2023)
“Also recorded” adds a separate entry of the source.

Experiments:
Assay type in all cases: cell-based, human
NK cells [1] = assay: NK cell expansion from CD34+ cells in three-stage NK culture, compound present for the first 14 days; conditions: for expansion, differentiation and cytotoxicity profiles compared to SR1: PNK-007 culture; for expansion, differentiation and cytotoxicity profiles compared to SR1 / level of expansion compared to SR1 at Day 35: compound at 10 μM; for support of NK cell expansion (and differentiation), in words: compound at 10 μM during first 14 days of culture; for support of NK cell expansion (and differentiation), in words / level of expansion compared to SR1 at Day 35: Day 35; for level of expansion compared to SR1 at Day 35: SR1 at 10 μM as positive control
Procedure: (§1) CD34^+ cells are cultured in the following medium formulations for the indicated number of days, and aliquots of cells are taken for assessment of cell count, cell viability, characterization of natural killer cell differentiation and functional evaluation.
(§2) Stage 1 medium: 90% Stem Cell Growth Medium (SCGM) (CellGro®), 10% Human Serum-AB, supplemented with 25 ng/mL or 250 ng/mL recombinant human thrombopoietin (TPO), 25 ng/mL recombinant human Flt3L, 27 ng/mL recombinant human stem cell factor (SCF), 25 ng/mL recombinant human IL-7, 0.05 ng/mL or 0.025 ng/mL recombinant human IL-6, 0.25 ng/mL or 0.125 ng/mL recombinant human granulocyte colony-stimulating factor (G-CSF), 0.01 ng/mL or 0.025 ng/mL recombinant human granulocyte-macrophage colony-stimulating factor (GM-CSF), 0.10% gentamicin, and 1 to 10 μm StemRegenin-1 (SR-1) or other stem cell mobilizing agent.
(§3) Stage 2 medium: 90% SCGM, 10% Human Serum-AB, supplemented with 25 ng/mL recombinant human Flt3L, 27 ng/mL recombinant human SCF, 25 ng/mL recombinant human IL-7, 20 ng/mL recombinant human IL-15, 0.05 ng/mL or 0.025 ng/mL recombinant human IL-6, 0.25 ng/mL or 0.125 ng/mL recombinant human granulocyte colony-stimulating factor (G-CSF), 0.01 ng/mL or 0.025 ng/mL recombinant human granulocyte-macrophage colony-stimulating factor (GM-CSF), 0.10% gentamicin, and 1 to […] SR1 or other stem cell mobilizing agent.
Stage 3 medium: 90% STEMMACS′, 10% Human Serum-AB, 0.025 mM 2-mercaptoethanol (55 mM), supplemented with 22 ng/mL recombinant human SCF, 1000 U/mL recombinant human IL-2, 20 ng/mL recombinant human IL-7, 20 ng/mL recombinant human IL-15, 0.05 ng/mL or 0.025 ng/mL recombinant human IL-6, 0.25 ng/mL or 0.125 ng/mL recombinant human granulocyte colony-stimulating factor (G-CSF), 0.01 ng/mL or 0.025 ng/mL recombinant human granulocyte-macrophage colony-stimulating factor (GM-CSF), and 0.10% gentamicin.
(§4) Cells are seeded at Day 0 at 3×10^4 cells/mL in Stage 1 media, and cells are tested for purity by a CD34+ and CD45+ count and viability by 7AAD staining. At Day 5 cells are counted and seeded to a concentration of 1×10^5 cells/mL with Stage 1 medium. At Day 7 cells are counted and seeded to a concentration of 1×10^5 cells/mL with Stage 1 medium.
At Day 10, cells are counted and seeded to a concentration of 1×10^5 cells/mL in Stage 2 medium. At Day 12, cells are counted and seeded to a concentration of 3×10^5 cells/mL in Stage 2 medium. At Day 14, cells are counted and seeded in Stage 3 medium. Cells are maintained in Stage 3 media until day 35.
(§5) UCB CD34+ cells were cultivated in presence of cytokines including thrombopoietin, SCF, Flt3 ligand, IL-7, IL-15 and IL-2 for 35 days to produce three-stage NK cells, as described in Example 1. Multi-color flow cytometry was used to determine the phenotypic characteristics of three-stage NK cells.
(§6) For biological testing, the compounds were provided to culture to evaluate their effects on NK cell expansion and differentiation. Specifically, donors of CD34+ cells (StemCell Technology) were thawed and expanded in vitro following NK culture protocol. During the first 14 days of the culture, each CRL compounds was dissolved in DMSO and added to the culture at 10 μM concentration. SR1 (at 10 μM) served as a positive control compound, while DMSO alone without any compound served as a negative control. At the end of the culture on Day 35, cell expansion, natural killer (NK) cell differentiation and cytotoxicity of the cells against K562 tumor cell line were characterized. Due to the large number of the compounds, the testing was performed in two experiments, CRL1-11 and CRL 12-22. The same donors were used for each experiment. Positive and negative controls were also included in both experiments.

CD34 cells = assay: CD34 cell expansion at Day 14 of the NK culture; conditions: compound at 10 μM; Day 14 of the culture
Procedure: as §1, §2, §3, §4
At Day 10, cells are counted and seeded to a concentration of 1×10^5 cells/mL in Stage 2 medium. At Day 12, cells are counted and seeded to a concentration of 3×10^5 cells/mL in Stage 2 medium. At Day 14, cells are counted and seeded in Stage 3 medium. Cells are maintained in Stage 3 media until day 35. […]

K562 tumor cells = assay: Cytotoxicity assay of compound cultured cells against K562 tumor cells; conditions: 10:1 E:T ratio, both donors
Procedure: as §6
Cytotoxicity assay was run using compound cultured cells against K562 tumor cells at 10:1 effector to target ratio (FIG. 5) to evaluate cell functions.

NK cells [2] = assay: NK cell differentiation at Day 35 by multi-color flow cytometry; conditions: PNK-007 culture, compound at 10 μM
Source text: as §5, §6

Row | SMILES | expansion, differentiation and cytotoxicity profiles compared to SR1 (NK cells [1]) | support of NK cell expansion (and differentiation), in words (NK cells [1]) | CD34 cell expansion at Day 14 (CD34 cells) | level of expansion compared to SR1 at Day 35 (NK cells [1]) | killing activities of cultured cells compared to those cultured with SR1 (K562 tumor cells) | CD56+/CD11a+ subpopulation compared to SR1 (NK cells [2])
1 | N#Cc1cncc(-c2nc(NCCc3c[nH]c4ccccc34)c3occc3n2)c1 [CRL22, 5-(4-((2-(1H-indol-3-yl)ethyl)amino)furo[3,2-d]pyrimidin-2-yl)nicotinonitrile] | very similar expansion, differentiation and cytotoxicity profiles as SR1 | supported cell expansion the best | achieved the highest CD34 cell expansion | – | – | –
2 | Cc1cncc(-c2nc(NCCc3c[nH]c4ccccc34)c3occc3n2)c1 [CRL20, N-(2-(1H-indol-3-yl)ethyl)-2-(5-methylpyridin-3-yl)furo[3,2-d]pyrimidin-4-amine] | very similar expansion, differentiation and cytotoxicity profiles as SR1 | supported cell expansion the best | achieved the highest CD34 cell expansion | – | – | –
3 | CCC(C)Nc1nc(NCCc2c[nH]c3ccccc23)c2ccccc2n1 (centres unmarked) [CRL13, N^4-(2-(1H-indol-3-yl)ethyl)-N^2-(sec-butyl)quinazoline-2,4-diamine] | – | Except for CRL7 and CRL13, the rest of the compounds all resulted in a NK expansion; also recorded: all the compounds except CRL7 and CRL13 supported PNK-007 expansion and differentiation | – | – | – | –
4 | CC(C)c1csc2c(NCCc3c[nH]c4ccccc34)nc(-c3cncc(C#N)c3)nc12 [CRL17, 5-(4-((2-(1H-indol-3-yl)ethyl)amino)-7-isopropylthieno[3,2-d]pyrimidin-2-yl)nicotinonitrile] | – | – | – | slightly less expansion compared to SR1 | increased killing activities of the cells | increased CD56+/CD11a+ subpopulation
5 | CC(C)c1csc2c(NCCc3c[nH]c4ccccc34)nc(-c3cncc(F)c3)nc12 [CRL18, N-(2-(1H-indol-3-yl)ethyl)-2-(5-fluoropyridin-3-yl)-7-isopropylthieno[3,2-d]pyrimidin-4-amine] | – | – | – | slightly less expansion compared to SR1 | increased killing activities of the cells | increased CD56+/CD11a+ subpopulation
6 | Cc1cncc(-c2nc(NCCc3c[nH]c4ccccc34)c3scc(C(C)C)c3n2)c1 [CRL21, N-(2-(1H-indol-3-yl)ethyl)-7-isopropyl-2-(5-methylpyridin-3-yl)thieno[3,2-d]pyrimidin-4-amine] | – | – | – | slightly less expansion compared to SR1 | increased killing activities of the cells | increased CD56+/CD11a+ subpopulation
7 | CCC(C)Nc1cc(-c2cncc(C#N)c2)nc(NCCc2c[nH]c3ccccc23)n1 (centres unmarked) [CRL7, 5-(2-((2-(1H-indol-3-yl)ethyl)amino)-6-(sec-butylamino)pyrimidin-4-yl)nicotinonitrile] | – | Except for CRL7 and CRL13, the rest of the compounds all resulted in a NK expansion; also recorded: all the compounds except CRL7 and CRL13 supported PNK-007 expansion and differentiation | – | – | – | –
8 | Fc1cncc(-c2nc(NCCc3c[nH]c4ccccc34)c3occc3n2)c1 [CRL19, N-(2-(1H-indol-3-yl)ethyl)-2-(5-fluoropyridin-3-yl)furo[3,2-d]pyrimidin-4-amine] | very similar expansion, differentiation and cytotoxicity profiles as SR1 | supported cell expansion the best | achieved the highest CD34 cell expansion | – | – | –
